In patent US11827628B2, “Compositions and methods for inhibition of the JAK pathway” (Rigel Pharmaceuticals, Inc., priority 2005, dated 2023):
Where two headings read alike, the source gives them in different places.

Test system: up-regulation of ICAM-1 (CD54) by IFNγ in A549 lung epithelial cells
Assay: A549 Epithelial Line Stimulated with IFNγ (ICAM-1 surface expression, FACS)
Type: cell-based, human
Details: ICAM-1 expression by FACS, read-out: IC50, Example 43
Procedure, shortened: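 ICAM-1 (CD54) flow cytometry on live-gated A549 cells, geometric mean versus dose giving EC50. Cells received IFNγ at 75 ng/mL for 24 h after a 1 h compound pre-treatment spanning 30 μM to 14 nM in medium with 5% FBS and 0.3% DMSO.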

[1] = A549 epithelial line stimulated with IFNγ

Row | SMILES | IC50 [1] | IC50 (A549 cells stimulated with IFNγ)
1 | COc1cc(Nc2ncc(F)c(Nc3ccc(OC(C)C#N)c(C)c3)n2)ccc1S(N)(=O)=O (racemic) [Compound I-64, Racemic N2-(4-Aminosulfonyl-3-methoxy)phenyl-N4-[4-(1-cyano)ethoxy-3-methyl]phenyl-5-fluoro-2,4-pyrimidinediamine] | 5.17 µM | –
2 | Cc1ccc(Nc2ncc(F)c(Nc3ccc(OC(C)(C)C#N)cc3)n2)cc1S(N)(=O)=O [Compound I-73, N2-(3-Aminosulfonyl-4-methyl)phenyl-N4-[4-(1-cyano-1-methyl)ethoxy]phenyl-5-fluoro-2,4-pyrimidinediamine] | 5.56 µM | –
3 | Cc1ccc(Nc2ncc(F)c(Nc3ccc(NC(=O)CC#N)c(Cl)c3)n2)cc1S(N)(=O)=O [Compound I-83, N2-(3-Aminosulfonyl-4-methylphenyl)-N4-[3-chloro-4-(N-cyanoacetyl)aminophneyl]-5-fluoro-2,4-pyrimidinediamine] | 14.9 µM | –
4 | Cc1cc(Nc2nc(Nc3cccc(S(N)(=O)=O)c3)ncc2F)cc(C)c1OCC(N)=O [Compound I-93, N4-(4-Aminocarbonylmethoxy-3,5-dimethyl)phenyl-N2-(3-aminosulfonyl)phenyl-5-fluoro-2,4-pyrimidinediamine] | 23.8 µM | –
5 | Cc1ccc(Nc2ncc(F)c(Nc3ccc(Cn4ccnc4)cc3)n2)cc1S(N)(=O)=O [III-82, N2-(3-Aminosulfonyl-4-methylphenyl)-5-fluoro-N4-[4-(1-imidazolylmethyl)phenyl]-2,4-pyrimidinediamine] | 24.2 µM | –
6 | N#CCOc1cccc(Nc2nc(Nc3cccc(S(N)(=O)=O)c3)ncc2F)c1 [Compound I-4, N2-(3-Aminosulfonyl)phenyl-N4-(3-cyanomethoxy)phenyl-5-fluoro-2,4-pyrimidinediamine] | 4.86 µM | –
7 | CC(C)(C#N)Oc1ccc(Nc2nc(Nc3cccc(S(N)(=O)=O)c3)ncc2F)cc1 [Compound I-76, N2-(3-Aminosulfonyl)phenyl-N4-[4-(1-cyano-1-methyl)ethoxy]phenyl-5-fluoro-2,4-pyrimidinediamine] | 5.14 µM | –
8 | NS(=O)(=O)c1cccc(Nc2ncc(F)c(Nc3ccc(Cn4ccnc4)cc3)n2)c1 [III-81, N2-(3-Aminosulfonylphenyl)-5-fluoro-N4-[4-(1-imidazolylmethyl)phenyl]-2,4-pyrimidinediamine] | 48.3 µM | –
9 | CNS(=O)(=O)c1cc(Nc2ncc(F)c(Nc3ccc(Cc4ccncc4)cc3)n2)ccc1C [III-75, 5-Fluoro-N2-[3-(N-methylaminosulfony)-4-methylphenyl]-5-fluoro-N4-[4-(4-pyridinylmethyl)phenyl]-2,4-pyrimidinediamine] | 10.1 µM | –
10 | Cc1ccc(Nc2ncc(F)c(Nc3ccc4c(c3)CCN4S(C)(=O)=O)n2)cc1S(N)(=O)=O [VII-61, N2-(3-Aminosulfonyl-4-methylphenyl)-5-fluoro-N4-[4-(1-methylsulfonyl)indolin-5-yl]-2,4-pyrimidinediamine] | – | 2.69 µM
11 | COc1cc(Nc2ncc(F)c(Nc3ccc(OC(C)C#N)cc3)n2)ccc1S(N)(=O)=O (racemic) [Compound I-70, Racemic N2-(4-Aminosulfonyl-3-methoxy)phenyl-N4-[4-(1-cyano)ethoxy]phenyl-5-fluoro-2,4-pyrimidinediamine] | 3.43 µM | –
12 | CC(C#N)Oc1ccc(Nc2nc(Nc3ccc(F)c(S(N)(=O)=O)c3)ncc2F)cc1 (racemic) [Compound I-68, Racemic N2-(3-Aminosulfonyl-4-fluoro)phenyl-N4-[4-(1-cyano)ethoxy]phenyl-5-fluoro-2,4-pyrimidinediamine] | 4.96 µM | –
13 | CC(C)(C#N)Oc1ccc(Nc2nc(Nc3ccc(F)c(S(N)(=O)=O)c3)ncc2F)cc1 [Compound I-74, N2-(3-Aminosulfonyl-4-fluoro)phenyl-N4-[4-(1-cyano-1-methyl)ethoxy]phenyl-5-fluoro-2,4-pyrimidinediamine] | 10.8 µM | –
14 | Cc1cc(Nc2nc(Nc3ccc(F)c(S(N)(=O)=O)c3)ncc2F)ccc1OC(C)C#N (racemic) [Compound I-69, Racemic N2-(3-Aminosulfonyl-4-fluoro)phenyl-N4-[4-(1-cyano)ethoxy-3-methyl]phenyl-5-fluoro-2,4-pyrimidinediamine] | 5.64 µM | –
15 | Cc1cc(Nc2nc(Nc3ccc(S(N)(=O)=O)cc3)ncc2F)ccc1OC(C)C#N (racemic) [Compound I-60, Racemic N2-(4-Aminosulfonyl)phenyl-N4-[4-(1-cyano)ethoxy-3-methyl]phenyl-5-fluoro-2,4-pyrimidinediamine] | 7.89 µM | –
16 | Cc1cc(Nc2nc(Nc3cccc(S(N)(=O)=O)c3)ncc2F)cc(C)c1OC(C)C#N (racemic) [Compound I-71, Racemic N2-(3-Aminosulfonyl)phenyl-N4-[4-(1-cyano)ethoxy-3,5-dimethyl]phenyl-5-fluoro-2,4-pyrimidinediamine] | 3.27 µM | –
17 | Cc1cc(Nc2nc(Nc3ccc(C)c(S(N)(=O)=O)c3)ncc2F)ccc1OC(C)C#N (racemic) [Compound I-62, Racemic N2-(3-Aminosulfonyl-4-methyl)phenyl-N4-[4-(1-cyano)ethoxy-3-methyl]phenyl-5-fluoro-2,4-pyrimidinediamine] | 3.53 µM | –
18 | Cc1cc(Nc2nc(Nc3ccc(F)c(S(N)(=O)=O)c3)ncc2F)cc(C)c1OCC#N [Compound I-35, N2-(3-Aminosulfonyl-4-fluoro)phenyl-N4-(4-cyanomethoxy-3,5-dimethyl)phenyl-5-fluoro-2,4-pyrimidinediamine] | 8.58 µM | –
19 | CCC(=O)NS(=O)(=O)c1cccc(Nc2ncc(F)c(Nc3ccc(OCc4nc(C)no4)cc3)n2)c1 [Compound I-273] | 12.9 µM | –
20 | Cc1ccc(Nc2ncc(F)c(Nc3ccc(OC(C)C#N)cc3)n2)cc1S(N)(=O)=O (racemic) [Compound I-67, Racemic N2-(3-Aminosulfonyl-4-methyl)phenyl-N4-[4-(1-cyano)ethoxy]phenyl-5-fluoro-2,4-pyrimidinediamine] | 4.62 µM | –
21 | Cc1cc(Nc2nc(Nc3ccc(S(N)(=O)=O)cc3)ncc2F)cc(C)c1OC(C)C#N (racemic) [Compound I-63, Racemic N2-(4-Aminosulfonyl)phenyl-N4-[4-(1-cyano)ethoxy-3,5-dimethyl]phenyl-5-fluoro-2,4-pyrimidinediamine] | 34.3 µM | –
22 | Cc1ccc(Nc2ncc(F)c(Nc3cc(C)c(OC(C)C#N)c(C)c3)n2)cc1S(N)(=O)=O (racemic) [Compound I-72, Racemic N2-(3-Aminosulfonyl-4-methyl)phenyl-N4-[4-(1-cyano)ethoxy-3,5-dimethyl]phenyl-5-fluoro-2,4-pyrimidinediamine] | 3.31 µM | –
23 | Cc1ccc(Nc2ncc(F)c(Nc3ccc(OCC#N)c(Cl)c3)n2)cc1S(N)(=O)=O [Compound I-43, N2-(3-Aminosulfonyl-4-methylphenyl)-N4-(3-chloro-4-cyanomethoxypheny)-5-fluoro-2,4-pyrimidinediamine] | 36.7 µM | –
